US20080039320A1 (priority 2004, published 2008)
Like-named read-outs stand apart in the source and are kept apart here.

What was measured:
[1] = test system: Puccinia recondita; experiment: 6 day protective activity against brown rust of wheat, foliar spray (Use Example 4); type: in vivo; conditions: wheat seedlings
Description: (§1) The active compounds were prepared separately as a stock solution with 0.25% by weight of active compound in acetone or DMSO. 1% by weight of the emulsifier Uniperol® EL (wetting agent having emulsifying and dispersing action based on ethoxylated alkylphenols) was added to this solution, and the mixture was diluted with water to the desired concentration.
(§2) The visually determined percentages of infected leaf areas were converted into efficacies in % of the untreated control:
(§3) The efficacy (E) is calculated as follows using Abbot's formula: E=(1−α/β)·100 α corresponds to the fungicidal infection of the treated plants in % and β corresponds to the fungicidal infection of the untreated (control) plants in % An efficacy of 0 means that the infection level of the treated plants corresponds to that of the untreated control plants; an efficacy of 100 means that the treated plants were not infected.
(§4) The expected efficacies of active compound combinations were determined using Colby's formula (Colby, S. R. “Calculating synergistic and antagonistic responses of herbicide combinations”, Weeds, 15, 20-22, 1967) and compared with the observed efficacies.
(§5) Colby's formula: E=x+y−x·y/100
6 Day Protective Activity Against Puccinia recondita on Wheat (Brown Rust of Wheat) Leaves of potted wheat seedlings of the cultivar “Kanzler” were sprayed to runoff point with an aqueous suspension having the concentration of active compound stated below. After six days, the treated plants were inoculated with a spore suspension of brown rust of wheat (Puccinia recondite). The plants were then placed in a chamber of high atmospheric humidity (90 to 95%) at 20 to 22° C. for 24 hours. During this time, the spores germinated and the germ tubes penetrated into the leaf tissue. The next day, the test plants were returned to the greenhouse and cultivated at temperatures between 20 and 22° C. and at 65 to 70% relative atmospheric humidity for a further 7 days. The extent of the rust fungus development on the leaves was then determined visually.

[2] = test system: Puccinia recondita; experiment: Protective activity against brown rust of wheat, menadione watered in, partner sprayed 6 days later (Use Example 2); type: in vivo; conditions: wheat seedlings
Description: as §1, §2, §3, §4
Colby's formula: E=x+y−x·y/100 […]

[3] = test system: Phytophthora infestans; type: in vivo; conditions: tomato plants
[4] = test system: Pyrenophora teres; experiment: Activity against net blotch of barley, 6 day protective application (Use Example 3); type: in vivo, Pyrenophora [syn. Drechslera] teres; conditions: barley seedlings
Description: as §1, §2, §3, §4, §5
Activity Against Net Blotch of Barley Caused by Pyrenophora teres, 6 Day Protective Application Leaves of potted barley seedlings were sprayed to runoff point with an aqueous suspension having the concentration of active compound stated below. After 6 days, the test plants were inoculated with an aqueous spore suspension of Pyrenophora [syn. Drechslera] teres, the net blotch pathogen. The test plants were then placed in a greenhouse at temperatures between 20 and 24° C. and 95 to 100% relative atmospheric humidity. After 6 days, the extent of the development of the disease was determined visually in % infection of the total leaf area.

[5] = test system: Erysiphe [syn. Blumeria] graminis forma specialis. tritici; experiment: Activity against mildew of wheat, 6 day protective application (Use Example 6); type: in vivo; conditions: wheat seedlings
Description: as §1, §2, §3, §4, §5
Activity Against Mildew of Wheat Caused by Erysiphe [syn. Blumeria] graminis Forma Specialis. Tritici, 6 Day Protective Application Leaves of potted wheat seedlings of the cultivar “Kanzler” were sprayed to runoff point with an aqueous suspension having the concentration of active compound stated below. The suspension or emulsion had been prepared as described above. 6 days after the application of the active compound, the plants were dusted with spores of mildew of wheat (Erysiphe [syn. Blumeria] graminis forma specialis. tritici). The test plants were then placed in a greenhouse at temperatures between 20 and 24° C. and at 60 to 90% relative atmospheric humidity. After 7 days, the extent of the mildew development was determined visually in % infection of the total leaf area.

[6] = test system: Pyricularia oryzae; type: in vivo; conditions: rice seedlings
[7] = test system: phytopathogenic fungi; experiment: Fungicidal tests, overall statements; type: in vivo; conditions: menadione on its own
Description: as §1, §2
The efficacy (E) is calculated as follows using Abbot's formula: E=(1−α/β)·100
as §4, §5

Fc1ccc([C@]2(Cn3cncn3)O[C@H]2c2ccccc2Cl)cc1 (racemic) [epoxiconazole, (2RS,3SR)-1-[3-(2-chlorophenyl)-2,3-epoxy-2-(4-fluorophenyl)propyl]-1H-1,2,4-triazole]
Observed effect (%) ([1]; 1 ppm): 22%

O=C(Nc1ccccc1-c1ccc(Cl)cc1)c1cccnc1Cl [boscalid, 2-chloro-N-(4′-chlorobiphenyl-2-yl)nicotinamide]
Observed effect (%) ([1]; 63 ppm): 22%

CC1CCN(c2c(-c3c(F)cc(F)cc3F)c(Cl)nc3ncnn23)CC1 [compound A, 5-Chloro-7-(4-methylpiperidin-1-yl)-6-(2,4,6-trifluorophenyl)-[1,2,4]triazolo[1,5-a]pyrimidine]
Observed effect (%) ([1]; 63 ppm): 22% | Observed effect (%) ([2]; 4 ppm, sprayed to runoff): 25%

COc1ccc(C(=CC(=O)N2CCOCC2)c2ccc(Cl)cc2)cc1OC [dimethomorph, 3-(4-chlorophenyl)-3-(3,4-dimethoxyphenyl)-1-morpholin-4-ylpropenone]
Observed effect (%) ([3]; 16 ppm): 37%

CC(C)NC(=O)N1CC(=O)N(c2cc(Cl)cc(Cl)c2)C1=O [iprodione, N-isopropyl-3-(3,5-dichlorophenyl)-2,4-dioxoimidazolidine-1-carboxamide]
Observed effect (%) ([4]; 250 ppm): 22%

CC1=CC(=O)c2ccccc2C1=O [menadione, 2-methyl-1,4-naphthoquinone]
Observed effect (%) ([5]; 16 ppm): 0% | Observed effect (%) ([4]; 16 ppm): 0% | Observed effect (%) ([4]; 63 ppm): 0% | Observed effect (%) ([6]; 250 ppm, efficacy in % of untreated control (Abbot)): 0% | fungicidal action against phytopathogenic fungi [7]: no fungicidal action | Observed effect (%) ([3]; 63 ppm): 27% | Observed effect (%) ([1]; 1 ppm): 0% | Observed effect (%) ([1]; 16 ppm): 25% | Observed effect (%) ([2]; 3.6%, watered with 2 ml aqueous suspension comprising 71 mg): 0%

COc1cc(C)c(C(=O)c2c(OC)ccc(Br)c2C)c(OC)c1OC [metrafenone, 3′-bromo-2,3,4,6′-tetramethoxy-2′,6-dimethylbenzophenone]
Observed effect (%) ([5]; 63 ppm): 67%

COC(=O)N(OC)c1ccccc1COc1ccn(-c2ccc(Cl)cc2)n1 [pyraclostrobin, methyl N-{2-[1-(4-chlorophenyl)-1H-pyrazol-3-yloxymethyl]phenyl}(N-methoxy)carbamate]
Observed effect (%) ([6]; 1 ppm, applied 1 day before inoculation): 20%

zinc ammoniate ethylenebis(dithiocarbamate) [metiram]
Observed effect (%) ([5]; 63 ppm): 0%
